# Experimental data: patent publication US12721905B2, “Combination of anti-HER2 antibody-drug conjugate and PARP1 selective inhibitor” (AstraZeneca UK Limited, priority 2020, dated 2026)
# How the values were obtained:
# BRCA2 (−/−) DLD1 cells = assay: PARP proliferation assay (4 day compound dosing), BRCA2 (-/-) DLD1; format: cell-based; details: Homo sapiens, DLD-1, 96 h, read-out: BRCA2 −/− DLD-1 prolif 4 d IC50
# DLD1 cells = assay: PARP proliferation assay (4 day compound dosing), WT DLD1; format: cell-based; details: Homo sapiens, DLD-1, 96 h, read-out: WT DLD-1 prolif 4 d IC50
# NCI-N87 xenograft = assay: Antitumor test in vivo, NCI-N87 xenograft (Example 5); parameters: species or system Female Nude mice; details: AZD5305 1 mg/kg PO QD for 28 days
# 5637 = assay: High-throughput combination screen, 7-day CellTiter-Glo cell viability (Example 6), 5637; format: cell-based; details: AZD5305 as single agent, HER2 mutant cell line 5637
# Method: Combination activity was assessed based on a combination of the ΔEmax and Loewe synergy scores.
# FIGS. 18A and 19A show matrices of measured cell viability signals. […] Values in the box represent the ratio of cells treated with drug A+B compared to DMSO control at day 7. All values are normalised to cell viability values at day 0. Values between 0 and 100 represent % growth inhibition and values above 100 represent cell death.
# FIGS. 18B and 19B show Loewe excess matrices. Values in the box represent excess values calculated by the Loewe additivity model.
# FIGS. 18C and 19C show HSA excess matrices. Values in the box represent excess values calculated by the HSA (Highest Single Agent) model.
# [1] = target: T1, Recombinant full length PARP2 protein (Homo sapiens, UniProt Q9UGN5); assay: PARP fluorescence anisotropy binding assay, PARP2
# T1 construct: Recombinant full length PARP2 protein
# T1 sequence (Q9UGN5 whole entry): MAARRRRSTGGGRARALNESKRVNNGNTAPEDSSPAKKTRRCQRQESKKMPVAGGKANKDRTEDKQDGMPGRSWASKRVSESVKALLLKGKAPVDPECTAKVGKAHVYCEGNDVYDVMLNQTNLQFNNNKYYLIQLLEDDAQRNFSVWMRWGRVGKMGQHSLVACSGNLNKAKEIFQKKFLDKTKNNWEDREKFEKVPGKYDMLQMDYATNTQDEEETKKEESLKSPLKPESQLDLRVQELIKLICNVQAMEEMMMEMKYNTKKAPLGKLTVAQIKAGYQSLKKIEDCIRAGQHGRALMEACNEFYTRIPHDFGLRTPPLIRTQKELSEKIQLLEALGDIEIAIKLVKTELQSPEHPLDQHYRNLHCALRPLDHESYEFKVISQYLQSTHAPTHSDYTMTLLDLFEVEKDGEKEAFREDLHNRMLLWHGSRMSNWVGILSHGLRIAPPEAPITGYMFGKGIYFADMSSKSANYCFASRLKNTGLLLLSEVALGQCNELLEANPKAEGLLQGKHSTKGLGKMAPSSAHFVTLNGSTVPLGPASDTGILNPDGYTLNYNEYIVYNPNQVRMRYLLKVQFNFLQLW
smiles,measurement,setting,value
CCc1cc2ncc(CN3CCN(c4ccc(C(=O)NC)nc4C(F)(F)F)CC3)cc2[nH]c1=O [Example 30],IC50,BRCA2 (−/−) DLD1 cells,0.004 µM
same,IC50,DLD1 cells,> 30 µM
"CCc1cc2ncc(CN3CCN(c4ccc(C(=O)NC)nc4)CC3)cc2[nH]c1=O [Synthesis Example 4, 5-[4-[(7-ethyl-6-oxo-5H-1,5-naphthyridin-3-yl)methyl]piperazin-1-yl]-N-methyl-pyridine-2-carboxamide]",TGI % day 41,NCI-N87 xenograft,40%
same,single agent activity,5637,not active
CCc1cc2ncc(CN3CCN(c4ccc(C(=O)NC)nc4C)CC3)cc2[nH]c1=O [Example 31],IC50,[1],3 µM
CCc1cc2ncc(CN3CCN(c4ccc(C(=O)NC)nc4)CC3)cc2[nH]c1=O [Example 4],IC50,BRCA2 (−/−) DLD1 cells,> 0.017 µM
